Key:
black nightshade = assay: greenhouse herbicidal test, pre-emergence; type: in vivo, Solanum nigrum; details: 125 or 62.5 g/ha
From the text: (§1) The culture containers used were plastic flower pots containing loamy sand with approximately 3.0% of humus as substrate. The seeds of the test plant were sown separately for each species.
(§2) For the pre-emergence treatment, the active ingredients, which were suspended or emulsified in water, were applied directly after sowing by means of finely distributing nozzles. The containers were irrigated gently to promote germination and growth and subsequently covered with transparent plastic hoods until the plants had rooted. This cover caused uniform germination of the test plants unless this was adversely affected by the active ingredients.
(§3) Depending on the species, the plants were kept at temperatures of from 10 to 25° C. or from 20 to 35° C. The test period extended over 2 to 4 weeks. During this time, the plants were tended, and their response to the individual treatments was evaluated.
(§4) Evaluation was carried out using a scale of from 0 to 100. 100 means no emergence of the plants, or complete destruction of at least the aerial parts, and 0 means no damage or normal course of growth.
(§5) The plants used in the greenhouse experiments belonged to the following species: […]

redroot pigweed = assay: greenhouse herbicidal test, pre-emergence; type: in vivo, Amaranthus retroflexus; details: 125 or 62.5 g/ha
From the text: as §1, §2, §3, §4, §5

lambsquarters = assay: greenhouse herbicidal test, pre-emergence; type: in vivo, Chenopodium album; details: 125 or 62.5 g/ha
From the text: as §1, §2, §3, §4, §5

hairy fingergrass = assay: greenhouse herbicidal test, pre-emergence; type: in vivo, Digitaria sanguinalis; details: 125 or 62.5 g/ha
From the text: as §1, §2, §3, §4, §5

For `CC1=NOC(c2c(S(C)(=O)=O)ccc(C(=O)C3=C(O)CCCC3=O)c2C)C1` (centres unmarked) [Compound 2.5, 2-[2-Methyl-3-(3-methyl-4,5-dihydroisoxazol-5-yl)-4-methylsulfonylbenzoyl]-1-hydroxycyclohex-1-en-3-one], the “herbicidal action against black nightshade” value (black nightshade) was “highly efficiently”, the “herbicidal action against redroot pigweed” value (redroot pigweed) was “highly efficiently” and the “herbicidal action against lambsquarters” value (lambsquarters) was “highly efficiently”. For the same compound, the “herbicidal action against hairy fingergrass” value (hairy fingergrass) was “highly efficiently” and the melting point was 135 to 140 °C.
